# Key:
# [1] = system: insulin signaling pathway in cultured primary human hepatocytes; experiment: Activation of insulin signaling pathway in primary human hepatocytes (immunoblot); type: cell-based; settings: serum starved hepatocytes, 60 minute exposure, doses of 0.05 and 0.10 μM, no insulin
# Procedure: Cultured primary human hepatocytes (commercially obtained) were serum starved overnight followed by 60 minute exposure to A) Compound 4 or B) Compound 16 at the indicated concentrations. Inhibitors were dissolved in DMSO. Negative controls included Control (no additions) and DMSO alone. The positive control included DMSO plus insulin (50 nM) for 30 minutes. Cells were harvested and lysates were subjected to immunoblot analyses using antibodies, as indicated.
# StarD10 = target: T1, StarD10 (Homo sapiens, UniProt Q9Y365); experiment: StarD10 inhibition assay; type: biochemical
# T1 sequence (Q9Y365 1-291): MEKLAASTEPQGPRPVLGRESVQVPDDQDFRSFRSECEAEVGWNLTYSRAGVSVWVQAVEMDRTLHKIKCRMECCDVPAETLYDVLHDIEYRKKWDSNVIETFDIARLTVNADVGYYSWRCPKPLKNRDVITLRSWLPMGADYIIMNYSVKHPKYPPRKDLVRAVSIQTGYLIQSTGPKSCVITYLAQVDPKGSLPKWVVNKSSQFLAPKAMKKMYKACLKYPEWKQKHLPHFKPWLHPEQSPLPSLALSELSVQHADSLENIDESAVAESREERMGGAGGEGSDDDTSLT
# Procedure: (§1) The compounds in Table 1 and 2 were assayed for their ability to inhibit PC-TP and StarD10, respectively, using a known assay method (see Wagle et al., 2008. Anal. Biochem. 383:85-92, which is incorporated herein by reference in its entirety). Further, certain compounds were also tested for their ability to inhibit StarD7 (see Table 2).
# PC-TP = target: T2, PC-TP (Homo sapiens, UniProt Q9UKL6); experiment: PC-TP inhibition assay (Wagle et al. method); type: biochemical; settings: Table 1, concentration value
# T2 sequence (Q9UKL6 1-214): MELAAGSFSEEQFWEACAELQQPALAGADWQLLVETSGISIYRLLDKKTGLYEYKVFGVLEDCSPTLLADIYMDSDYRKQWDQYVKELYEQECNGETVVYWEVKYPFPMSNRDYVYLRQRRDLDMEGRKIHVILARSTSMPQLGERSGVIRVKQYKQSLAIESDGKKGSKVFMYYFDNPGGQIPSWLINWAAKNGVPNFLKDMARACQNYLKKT
# Procedure: as §1
# StarD7 = target: T3, StarD7 (Homo sapiens, UniProt Q9NQZ5); experiment: StarD7 inhibition assay; type: biochemical
# T3 sequence (Q9NQZ5 78-370): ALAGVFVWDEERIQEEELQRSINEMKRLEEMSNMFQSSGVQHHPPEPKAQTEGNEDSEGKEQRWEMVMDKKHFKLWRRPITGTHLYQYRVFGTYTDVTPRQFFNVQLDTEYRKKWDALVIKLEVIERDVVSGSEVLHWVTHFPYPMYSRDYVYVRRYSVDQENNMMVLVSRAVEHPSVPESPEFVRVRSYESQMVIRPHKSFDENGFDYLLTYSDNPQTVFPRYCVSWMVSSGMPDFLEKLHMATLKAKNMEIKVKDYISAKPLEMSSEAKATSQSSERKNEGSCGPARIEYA
# Procedure: as §1
# [2] = target: T4, purified recombinant PC-TP (Homo sapiens, UniProt Q9UKL6); experiment: Displacement assay of PC-TP using pyrene-labeled PC; type: binding
# T4 sequence (Q9UKL6 1-214): T2 sequence (Q9UKL6 1-214)
# Procedure: Competition between the small molecule inhibitors and fluorescent pyrene-labeled phosphatidylcholine (PyrPC) for binding to PC-TP was measured using Pyr-PC fluorescent vesicles quenched with tetracyanoquinodimethane (TCNQ) (Lemmetyinen H. et al. 1989). Upon mixing of quenched Pyr-PC vesicles with purified recombinant PC-TP, the rise in Pyr-PC fluorescence reflects binding of fluorescently labeled phosphatidylcholine molecules to the active site of PC-TP. If the small molecule inhibitors enter the active site and prevent binding of phosphatidylcholine to PC-TP by competing the Pyr-PC, this should reduce the observed increase in Pyr-PC fluorescence.
# The fluorescence of PyrPC monomer was measured at 392 nm on SpectraMax M5 plate-reader with excitation was set at 345 nm. Pyrene-labeled PC vesicles contained PyrPC, egg PC, and TCNQ in a molar ratio of 40:20:60. For PC and PyrPC competition assays, we used unlabeled PC vesicles composed of egg PC and TCNQ in a molar ratio of 55:45 or PC vesicles of varied lipid concentrations and PyrPC vesicles quenched with TCNQ (55:45). […] To determine the affinity of eggPC compared to PyrPC, we varied the concentration of egg PC in the assay as follows: 5, 11, 22, 27, 33, and 44 μM, and a fixed amount of PyrPC (44 μM). […] In the displacement assay, the increase in pyrene monomer fluorescence (ΔF) is proportional to the amount of [Pyr], pyrene-labeled PC bound to PC-TP. The maximal fluorescence increase (ΔFmax) at pyrene monomer emission peak (˜380-394 nm) is observed in the absence of inhibitor ([inh]=0) or unlabeled lipid ([PC]=0). The fluorescence reading of wells with PyrPC vesicles alone and Pyr-PC vesicles with inhibitor (highest background fluorescence) were used as control and subtracted as background.
# As described in Van Paridon et al. 1987, by plotting ΔF as a function of ΔF·[inh]/[Pyr] […] Therefore, Krel (Compound 4/PC) can be calculated as Krel (Compound 4/PyrPC)/Krel (PC/PyrPC)=0.22.
# [3] = target: T5, purified recombinant His-tag PC-TP (Homo sapiens, UniProt Q9UKL6); experiment: Surface plasmon resonance binding to immobilized PC-TP; settings: Biacore 3000, CM5 chip, 150 s injection
# T5 sequence (Q9UKL6 1-214): T2 sequence (Q9UKL6 1-214)
# Procedure: Compound 8 was injected into a Biacore 3000 surface plasmon resonance instrument with purified recombinant His-tag PC-TP immobilized to a carboxymethyl dextran 5 ([…]) chip for 150 s and allowed to dissociate. Each sensogram was overlaid and zeroed on the y-axis to the average baseline before injection. The start injection time for each sample was set to zero on the x-axis (see FIG. 2). The KD value was 5.0 μM.
IC50 (StarD10) [µM],IC50 (PC-TP) [µM],IC50 (StarD7) [µM],Krel (Compound 4/PC) ([2]; calculated as Krel (Compound 4/PyrPC)/Krel (PC/PyrPC)),"Krel (Compound 4/PyrPC), relative affinity constant ([2]; inhibitor 5-75 μM, PyrPC 36 μM, PC-TP 300 nM, averaged from multiple experiments)",Kd [3] [µM],Structure (SMILES),Activation of insulin signaling [1],Effect on pyrene monomer fluorescence (Pyr-PC binding to PC-TP) ([2]; increasing inhibitor concentration)
12,4.1,63,0.22,1.1+/−0.36,–,"Cc1cc(C)nc(NS(=O)(=O)c2ccc(NC(=O)NC(=O)c3ccc(Cl)cc3Cl)cc2)n1 [Compound 4, 2,4-dichloro-N-(4-(N-(4,6-dimethylpynmidin-2-yl)sulfamoyl)phenylcarbamoyl) benzamide]",activated insulin signaling,diminishing fluorescence of pyrene monomer
14,6.5,–,–,–,5,"Cc1cc(C)nc(NS(=O)(=O)c2cccc(NC(=O)NC(=O)c3ccc(Cl)cc3Cl)c2)n1 [Compound 8, 2,4-dichloro-N-(3-(N-(4,6-dimethylpyrimidin-2-yl)sulfamoyl)phenylcarbamoyl) benzamide]",–,–

# From US9126938B2, “Phosphatidylcholine transfer protein inhibitors” (The Brigham and Women's Hospital, Inc., priority 2009, dated 2015)
